The values that follow come from patent US9695219B2, “Polypeptide having antibacterial activity and angiogenesis-inducing activity and wound-healing drug containing said polypeptide” (priority 2009, dated 2017).

Common to all, as to type: cell-based
The test system of one assay is Acinetobacter baumanni. Conditions: 37° C. for 20 hours; tested twice, first/second value where not matched. On the procedure:
(§1) Further, with respect to not only the above-described strains but also various other strains, the “minimum inhibitory concentration (MIC)” was measured as follows. MIC is the lowest concentration of an agent that may inhibit the growth of a bacterium. MIC is used as a parameter for the efficacy of an antibacterial agent, for the strength of bacterial sensitivity, or the like. The bacteria can grow (proliferate) when the concentration is not higher than MIC, and cannot grow when the concentration is higher than MIC. Its measurement is carried out according to a method defined as a standard method by Japanese Society of Chemotherapy or CLINICAL AND LABORATORY […] (CLSI), but, in this Example, its measurement was carried out by a broth microdilution method in accordance with “M100-S17/M7-A7” (Performance Standards for Antimicrobial Susceptibility Testing; Seventeenth Informational Supplement, Vol. 27 No. 1) published by CLSI on January, 2007. That is, sensitivity test of agents was carried out using a microtiter plate or test tubes.
(§2) The bacteria were cultured in liquid media for 4 to 6 hours, and thereafter absorbances at A600 were measured. Bacterial suspensions were diluted with Mueller-Hinton broth (MHB) according to McFarland #0.5. Each strain was added so as to attain about 10^5 CFU/ml (final concentration). Each peptide was prepared to an optional concentration, and the solutions were serially diluted from the concentration. The polypeptide at each concentration stage was added to a microplate or test tubes, and the bacterial suspension was added thereto. Chloramphenicol, amphotericin B, ciprofloxacin, meropenem (MEPM), ciprofloxacin (CPFX), tobramycin (TOB) and oxacillin (OX) were used as positive controls. The plate was incubated at 37° C. for 20 hours, and the lowest concentration where bacterial growth was inhibited was regarded as the minimum inhibitory concentration.

The next assay relates to Clostridium ramosum. In words: microbe, parasite or virus in culture. Conditions: Thomasclavelia ramosa; 37° C. for 20 hours; tested twice, first/second value where not matched. On the procedure:
as §1, §2

For the next assay, the system named is Enterococcus faecalis. In words: microbe, parasite or virus in culture. Conditions: 37° C. for 20 hours, tested twice, first/second value where not matched. On the procedure: as §1, §2
Another assay relates to Micrococcus luteus. In words: microbe, parasite or virus in culture. Conditions: 37° C. for 20 hours, tested twice, first/second value where not matched. On the procedure: as §1, §2
The subject of another assay is Bacillus subtilis. In words: microbe, parasite or virus in culture. Conditions: 37° C. for 20 hours, tested twice, first/second value where not matched. On the procedure: as §1, §2
Another assay relates to Salmonella enteritidis. In words: microbe, parasite or virus in culture. Conditions: Salmonella enterica, 37° C. for 20 hours, tested twice, first/second value where not matched. On the procedure:
as §1, §2

In the next assay the test system is Fusobacterium nucleatum. In words: microbe, parasite or virus in culture. Conditions: Fusobacterium nucleatum; 37° C. for 20 hours; tested twice, first/second value where not matched. How it is done:
as §1, §2

Another assay relates to Salmonella typhimurium. In words: microbe, parasite or virus in culture. Conditions: Salmonella enterica, TYPHIMURIUM; 37° C. for 20 hours; tested twice, first/second value where not matched. On the procedure:
as §1, §2

A further assay has as its system Bacteroides fragilis. In words: microbe, parasite or virus in culture. Conditions: Bacteroides fragilis; 37° C. for 20 hours; tested twice, first/second value where not matched. On the procedure: as §1, §2
The test system of another assay is Streptococcus pyogenes. In words: microbe, parasite or virus in culture. Conditions: 37° C. for 20 hours, tested twice, first/second value where not matched. On the procedure:
as §1, §2

SMILES strings stand for the structures. Converted amounts (≈) assume the structure as drawn.

As to `O=C(N[C@H](CO)[C@H](O)c1ccc([N+](=O)[O-])cc1)C(Cl)Cl` [Chloramphenicol], the “MIC, Acinetobacter baumanni” value in the assay with Acinetobacter baumanni is listed as 16/32. Also, the MIC in the assay on Clostridium ramosum amounted to 4 µg/mL (≈ 12.4 µM); with Enterococcus faecalis, 4 µg/mL (≈ 12.4 µM); in the assay with Micrococcus luteus it was 1 µg/mL (≈ 3.09 µM); against Bacillus subtilis, 4 µg/mL (≈ 12.4 µM); with Salmonella enteritidis it was 4 µg/mL (≈ 12.4 µM); in the assay on Fusobacterium nucleatum, 0.25 µg/mL (≈ 0.774 µM). Moreover, the figures for the MIC against Salmonella typhimurium, in the assay on Bacteroides fragilis and in the assay with Streptococcus pyogenes were 4 µg/mL (≈ 12.4 µM), 1 µg/mL (≈ 3.09 µM) and 2 µg/mL (≈ 6.19 µM), respectively.
